Consider 30 compounds from ChEMBL document CHEMBL3870304 (Eur J Med Chem, 2016).

Assay [1] can be described thus: cells. The conditions noted are these: Homo sapiens, NCI-H460, 72 h.
Description: Cytotoxicity against human NCI-H460 cells assessed as reduction in cell proliferation after 72 hrs by MTT assay
Assay [2] is described as follows: cells. The conditions noted are these: Homo sapiens, HCC78, 72 h.
Description: Cytotoxicity against human HCC78 cells harboring SLC34A2-ROS1 assessed as reduction in cell proliferation after 72 hrs by MTT assay
A short description of assay [3]: cells. The conditions noted are these: Homo sapiens, KARPAS-299, 72 h.
Description: Cytotoxicity against human KARPAS299 cells harboring NPM-ALK assessed as reduction in cell proliferation after 72 hrs by MTT assay
The nature of assay [4]: cells. The conditions noted are these: Homo sapiens, A549, 72 h.
Description: Cytotoxicity against human A549 cells assessed as reduction in cell proliferation after 72 hrs by MTT assay
Assay [5] in a line: cells. The conditions noted are these: Homo sapiens, HT-29, 72 h.
Description: Cytotoxicity against human HT-29 cells assessed as reduction in cell proliferation after 72 hrs by MTT assay
For assay [6], the target named is Proto-oncogene tyrosine-protein kinase ROS (Homo sapiens, UniProt P08922).
Description: Inhibition of ROS1 (unknown origin) using peptide as substrate after 60 mins by HTRF assay
For assay [7], the system named is ALK tyrosine kinase receptor (Homo sapiens), Q9UM73 [L1196M]. Briefly: Potency index, ratio of crizotinib IC50 to compound IC50 for ALK L1196M mutant (unknown origin).
Assay [8] has as its target Epidermal growth factor receptor (Homo sapiens, UniProt P00533).
Description: Inhibition of EGFR (unknown origin) using peptide as substrate after 60 mins by HTRF assay
Assay [9] has as its target ALK tyrosine kinase receptor (Homo sapiens, UniProt Q9UM73, L1196M).
Assay [10] deals with Hepatocyte growth factor receptor (Homo sapiens, UniProt P08581).
Description: Inhibition of c-Met (unknown origin) using peptide as substrate after 60 mins by HTRF assay
Assay [11] deals with ALK tyrosine kinase receptor (Homo sapiens, UniProt Q9UM73).
Description: Inhibition of ALK (unknown origin) using peptide as substrate after 60 mins by HTRF assay

The structures appear in SMILES notation.

ALK tyrosine kinase receptor (Homo sapiens, UniProt Q9UM73), sequence (Q9UM73 whole entry): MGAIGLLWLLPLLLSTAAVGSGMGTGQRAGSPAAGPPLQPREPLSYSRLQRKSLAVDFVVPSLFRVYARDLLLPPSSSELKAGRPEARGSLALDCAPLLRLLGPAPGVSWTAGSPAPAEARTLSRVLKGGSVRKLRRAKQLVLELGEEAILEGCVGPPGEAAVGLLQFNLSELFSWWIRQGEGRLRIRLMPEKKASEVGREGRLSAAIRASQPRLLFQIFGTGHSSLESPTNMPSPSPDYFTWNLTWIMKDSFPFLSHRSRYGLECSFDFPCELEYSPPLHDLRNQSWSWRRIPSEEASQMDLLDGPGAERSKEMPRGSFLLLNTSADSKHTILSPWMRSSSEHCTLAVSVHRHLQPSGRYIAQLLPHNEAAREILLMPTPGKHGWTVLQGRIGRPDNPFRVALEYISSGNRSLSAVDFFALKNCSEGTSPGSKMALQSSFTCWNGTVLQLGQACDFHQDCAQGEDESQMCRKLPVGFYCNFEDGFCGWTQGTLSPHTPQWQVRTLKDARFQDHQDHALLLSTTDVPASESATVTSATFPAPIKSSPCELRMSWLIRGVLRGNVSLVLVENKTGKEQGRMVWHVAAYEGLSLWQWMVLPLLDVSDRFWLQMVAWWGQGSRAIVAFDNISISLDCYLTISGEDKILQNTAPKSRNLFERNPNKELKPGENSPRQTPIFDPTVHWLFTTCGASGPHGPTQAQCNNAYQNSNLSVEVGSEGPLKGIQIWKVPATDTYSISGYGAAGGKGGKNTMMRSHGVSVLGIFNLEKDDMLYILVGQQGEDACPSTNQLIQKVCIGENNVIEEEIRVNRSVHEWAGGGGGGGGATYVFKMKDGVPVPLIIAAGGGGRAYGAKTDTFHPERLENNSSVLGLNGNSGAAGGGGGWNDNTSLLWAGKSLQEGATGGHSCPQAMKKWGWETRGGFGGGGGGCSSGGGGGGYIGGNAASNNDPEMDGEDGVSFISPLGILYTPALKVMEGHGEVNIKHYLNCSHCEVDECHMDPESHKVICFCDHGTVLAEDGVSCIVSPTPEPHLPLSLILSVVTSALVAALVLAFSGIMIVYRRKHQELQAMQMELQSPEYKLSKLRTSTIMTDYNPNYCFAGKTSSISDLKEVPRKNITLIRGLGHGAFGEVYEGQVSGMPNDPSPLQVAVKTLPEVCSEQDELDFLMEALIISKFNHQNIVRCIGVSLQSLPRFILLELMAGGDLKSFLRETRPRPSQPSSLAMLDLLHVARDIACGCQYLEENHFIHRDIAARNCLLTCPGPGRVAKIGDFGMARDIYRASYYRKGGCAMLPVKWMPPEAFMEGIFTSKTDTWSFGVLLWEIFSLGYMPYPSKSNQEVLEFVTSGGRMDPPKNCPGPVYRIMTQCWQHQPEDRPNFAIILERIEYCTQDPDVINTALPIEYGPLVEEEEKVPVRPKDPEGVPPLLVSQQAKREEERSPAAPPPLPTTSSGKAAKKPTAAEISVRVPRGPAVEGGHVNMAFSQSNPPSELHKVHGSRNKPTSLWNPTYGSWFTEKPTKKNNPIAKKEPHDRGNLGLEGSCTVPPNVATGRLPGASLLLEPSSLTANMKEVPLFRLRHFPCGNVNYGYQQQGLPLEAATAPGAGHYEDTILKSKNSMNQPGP
Hepatocyte growth factor receptor, sequence (P08581 whole entry): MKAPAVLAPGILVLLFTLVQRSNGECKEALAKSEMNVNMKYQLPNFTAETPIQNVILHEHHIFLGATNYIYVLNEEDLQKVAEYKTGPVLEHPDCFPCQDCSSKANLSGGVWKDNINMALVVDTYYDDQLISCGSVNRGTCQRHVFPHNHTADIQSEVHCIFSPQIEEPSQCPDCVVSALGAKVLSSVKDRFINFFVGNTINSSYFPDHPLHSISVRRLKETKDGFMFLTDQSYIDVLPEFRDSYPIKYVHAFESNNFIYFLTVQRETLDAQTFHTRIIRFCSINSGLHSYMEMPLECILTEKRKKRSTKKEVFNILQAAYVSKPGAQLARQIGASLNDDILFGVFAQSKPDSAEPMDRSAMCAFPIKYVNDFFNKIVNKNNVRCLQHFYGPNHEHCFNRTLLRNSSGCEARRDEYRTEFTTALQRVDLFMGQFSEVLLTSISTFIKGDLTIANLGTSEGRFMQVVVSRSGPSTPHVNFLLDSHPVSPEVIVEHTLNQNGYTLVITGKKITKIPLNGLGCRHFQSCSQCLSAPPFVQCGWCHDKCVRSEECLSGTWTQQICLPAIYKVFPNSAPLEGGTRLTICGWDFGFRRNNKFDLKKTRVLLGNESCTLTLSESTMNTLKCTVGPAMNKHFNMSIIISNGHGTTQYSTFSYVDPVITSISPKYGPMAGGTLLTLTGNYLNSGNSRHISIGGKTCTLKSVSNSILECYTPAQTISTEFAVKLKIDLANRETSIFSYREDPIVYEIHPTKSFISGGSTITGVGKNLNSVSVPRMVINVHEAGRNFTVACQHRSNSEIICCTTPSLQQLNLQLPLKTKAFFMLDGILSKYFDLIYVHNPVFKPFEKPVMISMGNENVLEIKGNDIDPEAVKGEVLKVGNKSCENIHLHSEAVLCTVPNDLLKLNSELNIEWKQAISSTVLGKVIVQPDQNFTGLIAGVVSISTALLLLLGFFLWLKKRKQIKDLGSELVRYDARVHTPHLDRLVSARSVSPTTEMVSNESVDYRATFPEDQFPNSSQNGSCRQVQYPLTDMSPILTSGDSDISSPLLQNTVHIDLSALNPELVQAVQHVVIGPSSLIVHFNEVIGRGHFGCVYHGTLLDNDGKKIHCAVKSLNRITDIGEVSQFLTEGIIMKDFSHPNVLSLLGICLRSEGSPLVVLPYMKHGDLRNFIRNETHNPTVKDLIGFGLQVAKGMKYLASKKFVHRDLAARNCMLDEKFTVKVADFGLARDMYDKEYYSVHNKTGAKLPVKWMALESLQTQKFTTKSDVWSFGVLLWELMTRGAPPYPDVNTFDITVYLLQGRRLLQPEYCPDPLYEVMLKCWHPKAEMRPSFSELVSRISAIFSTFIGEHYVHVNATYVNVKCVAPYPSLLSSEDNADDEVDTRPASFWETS
Epidermal growth factor receptor, sequence (P00533 whole entry): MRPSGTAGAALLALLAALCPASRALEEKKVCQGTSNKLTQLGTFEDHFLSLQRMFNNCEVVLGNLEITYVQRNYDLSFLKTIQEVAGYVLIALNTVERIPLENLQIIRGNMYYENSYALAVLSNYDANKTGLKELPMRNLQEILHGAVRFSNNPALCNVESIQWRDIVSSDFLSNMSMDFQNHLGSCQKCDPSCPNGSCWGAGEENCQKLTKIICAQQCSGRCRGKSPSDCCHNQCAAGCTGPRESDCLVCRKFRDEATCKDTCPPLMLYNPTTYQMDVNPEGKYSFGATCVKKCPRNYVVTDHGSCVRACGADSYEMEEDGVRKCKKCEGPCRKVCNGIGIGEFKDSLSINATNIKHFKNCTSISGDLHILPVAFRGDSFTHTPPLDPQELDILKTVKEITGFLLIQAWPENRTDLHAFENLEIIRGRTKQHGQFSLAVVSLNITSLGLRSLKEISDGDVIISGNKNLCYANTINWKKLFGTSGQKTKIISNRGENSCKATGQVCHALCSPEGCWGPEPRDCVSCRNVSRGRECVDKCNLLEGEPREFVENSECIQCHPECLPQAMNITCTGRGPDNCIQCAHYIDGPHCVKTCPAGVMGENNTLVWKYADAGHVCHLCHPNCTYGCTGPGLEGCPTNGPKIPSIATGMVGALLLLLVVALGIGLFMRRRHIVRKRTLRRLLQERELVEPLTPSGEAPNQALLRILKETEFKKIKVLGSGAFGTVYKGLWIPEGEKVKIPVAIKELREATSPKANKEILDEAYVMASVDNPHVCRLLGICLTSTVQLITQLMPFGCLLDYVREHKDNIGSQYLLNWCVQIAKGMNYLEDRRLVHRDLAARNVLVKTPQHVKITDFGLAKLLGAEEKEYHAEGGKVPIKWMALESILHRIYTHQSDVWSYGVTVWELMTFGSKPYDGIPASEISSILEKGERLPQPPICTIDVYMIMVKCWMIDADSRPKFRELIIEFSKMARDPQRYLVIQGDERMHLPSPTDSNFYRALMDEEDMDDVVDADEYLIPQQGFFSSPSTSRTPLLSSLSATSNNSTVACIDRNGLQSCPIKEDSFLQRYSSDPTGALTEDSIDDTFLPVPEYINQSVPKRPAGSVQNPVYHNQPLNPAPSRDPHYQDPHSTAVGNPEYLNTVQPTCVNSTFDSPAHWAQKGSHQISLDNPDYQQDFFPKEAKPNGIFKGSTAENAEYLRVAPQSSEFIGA
ALK tyrosine kinase receptor (Homo sapiens), Q9UM73 [L1196M], sequence (Q9UM73 whole entry L1196M, looked up): as the sequence (Q9UM73 whole entry) above, with L1196M counted along it

As a reminder, the IC50 is the point on the concentration scale where inhibition reaches its midpoint. The low end stands for greater potency, the high end for weaker potency. For the compound `COc1ccccc1/C=N/Nc1ncc(Cl)c(Nc2ccccc2S(=O)(=O)C(C)C)n1`, the IC50 is greater than 10000 nM in [1]; 4160 nM in assay [2]; 6930 nM in assay [3]; 7040 nM in assay [4]; greater than 10000 nM in assay [5].

Take `CC(C)S(=O)(=O)c1ccccc1Nc1nc(N/N=C/c2cccc(Br)c2)ncc1Cl`: the IC50 in assay [1] was greater than 10000 nM; in assay [2], 1200 nM; in assay [3] it was 1400 nM; in assay [4], 1090 nM; in assay [5], 1030 nM.

Regarding `C/C(=N\Nc1ncc(Cl)c(Nc2ccccc2S(=O)(=O)C(C)C)n1)c1ccccc1F`, the IC50 in assay [1] was 7150 nM; in [2], 600 nM; in assay [3], 540 nM; in assay [4], greater than 10000 nM; in [5], greater than 10000 nM.

Turning to `COc1cc(/C=N/Nc2ncc(Cl)c(Nc3ccccc3S(=O)(=O)C(C)C)n2)cc(OC)c1OC`, the IC50 was 1230 nM in assay [1]; 19 nM in [2]; 20 nM in assay [3]; 1150 nM in assay [4]; 2150 nM in [5].

Turning to `COc1cccc(/C=N/Nc2ncc(Cl)c(Nc3ccccc3S(=O)(=O)C(C)C)n2)c1`, the IC50 in assay [1] turned out to be 2230 nM; in assay [6] it was 5.8 nM; in assay [8], 601 nM; in assay [9] it was 86 nM; in assay [10], 376 nM; in [2], 44 nM. Besides, the IC50 is 22 nM in [3], 1250 nM in assay [4], 5570 nM in assay [5] and 6.2 nM in [11]. In addition, the Ratio IC50 in assay [7] is 20.

With `CC(C)S(=O)(=O)c1ccccc1Nc1nc(N/N=C/c2ccc(S(C)(=O)=O)cc2)ncc1Cl`, the IC50 in assay [1] came out at 2020 nM; in [2], 310 nM; in [3] it was 240 nM; in assay [4], 1330 nM; in assay [5] it was 1100 nM.

Regarding `CC(C)S(=O)(=O)c1ccccc1Nc1nc(N/N=C/c2ccc(C(F)(F)F)cc2)ncc1Cl`, the IC50 was greater than 10000 nM in assay [1]; 3.4 nM in [6]; 593 nM in assay [8]; 73 nM in [9]; 380 nM in [10]; 82 nM in assay [2]. The IC50 came out at 35 nM in assay [3], 940 nM in assay [4], 1120 nM in assay [5] and 3.6 nM in assay [11]. Moreover, the Ratio IC50 in [7] is 20.

On to `CC(C)S(=O)(=O)c1ccccc1Nc1nc(N/N=C/c2ccco2)ncc1Cl`, for which the IC50 in [1] turned out to be 1030 nM; in assay [2], 2520 nM; in [3], 750 nM; in [4], 1940 nM; in assay [5], 3100 nM.

In the case of `Cc1cc(Nc2ncc(Cl)c(Nc3ccccc3S(=O)(=O)C(C)C)n2)c(OC(C)C)cc1C1CCNCC1` [CERITINIB], the IC50 is greater than 10000 nM in assay [1]; 18 nM in assay [2]; 27 nM in assay [3]; greater than 10000 nM in assay [4]; greater than 10000 nM in assay [5].

As for `CC(C)S(=O)(=O)c1ccccc1Nc1nc(N/N=C/c2ccc(C#N)cc2)ncc1Cl`, the IC50 amounted to 2830 nM in [1]; 270 nM in assay [2]; 340 nM in assay [3]; 2510 nM in assay [4]; 2960 nM in assay [5].

Take `CC(C)S(=O)(=O)c1ccccc1Nc1nc(N/N=C/c2ccc([N+](=O)[O-])cc2)ncc1Cl`: the concentration for half-maximal inhibition (IC50) in assay [1] was greater than 10000 nM; in assay [2] it was 1980 nM; in assay [3], 2970 nM; in assay [4] it was 9250 nM; in assay [5], 1720 nM.

On to `CC(C)S(=O)(=O)c1ccccc1Nc1nc(N/N=C/c2ccc(Cl)cc2)ncc1Cl`, for which the IC50 in assay [1] was 2900 nM; in assay [2], 1700 nM; in [3], 1320 nM; in assay [4], 2930 nM; in assay [5], 8190 nM.

With `COc1ccc(/C=N/Nc2ncc(Cl)c(Nc3ccccc3S(=O)(=O)C(C)C)n2)cc1`, the IC50 in assay [1] came to 1320 nM; in assay [6], 2.3 nM; in assay [8] it was 587 nM; in assay [9] it was 82 nM; in assay [10] it was 157 nM; in assay [2] it was 20 nM. In addition, the IC50 amounted to 28 nM in assay [3], 580 nM in [4], 1130 nM in assay [5] and 4.8 nM in [11]. Besides, the Ratio IC50 in [7] turned out to be 20.

Turning to `CC(C)S(=O)(=O)c1ccccc1Nc1nc(N/N=C/c2cccnc2)ncc1Cl`, the IC50 was found to be 1530 nM in [1]; 970 nM in assay [2]; 930 nM in assay [3]; 1150 nM in assay [4]; 830 nM in [5].

With `CC(C)S(=O)(=O)c1ccccc1Nc1nc(N/N=C/c2cccs2)ncc1Cl`, the IC50 in assay [1] stood at 570 nM; in [2] it was 880 nM; in assay [3] it was 910 nM; in [4] it was 470 nM; in assay [5] it was 880 nM.

`C/C(=N\Nc1ncc(Cl)c(Nc2ccccc2S(=O)(=O)C(C)C)n1)c1ccc(Br)cc1`: the IC50 in assay [1] is greater than 10000 nM; in [2], 2380 nM; in [3] it was 2500 nM; in [4], 4840 nM; in assay [5] it was greater than 10000 nM.

Turning to `CC(C)S(=O)(=O)c1ccccc1Nc1nc(N/N=C/c2ccc(F)cc2F)ncc1Cl`, the IC50 is 3360 nM in assay [1]; 110 nM in assay [2]; 100 nM in [3]; 2280 nM in [4]; greater than 10000 nM in assay [5].

Regarding `CC(C)S(=O)(=O)c1ccccc1Nc1nc(N/N=C/c2ccncc2)ncc1Cl`, the IC50 in assay [1] is 1130 nM; in assay [2], 820 nM; in assay [3], 870 nM; in assay [4], 1420 nM; in assay [5], 980 nM.

`C/C(=N\Nc1ncc(Cl)c(Nc2ccccc2S(=O)(=O)C(C)C)n1)c1ccc(F)cc1F`: the IC50 was greater than 10000 nM in [1]; 670 nM in assay [2]; 440 nM in assay [3]; 1650 nM in assay [4]; 2120 nM in assay [5].

As to `Cc1ccc(/C=N/Nc2ncc(Cl)c(Nc3ccccc3S(=O)(=O)C(C)C)n2)cc1`, the IC50 in assay [1] was 1650 nM; in assay [2], 1730 nM; in assay [3], 1620 nM; in assay [4], 4420 nM; in assay [5], greater than 10000 nM.

In the case of `CSc1ccc(/C(C)=N/Nc2ncc(Cl)c(Nc3ccccc3S(=O)(=O)C(C)C)n2)cc1`, the IC50 in assay [1] is greater than 10000 nM; in [2] it was 850 nM; in [3], 490 nM; in assay [4], greater than 10000 nM; in assay [5], 5430 nM.

For the compound `CC(C)S(=O)(=O)c1ccccc1Nc1nc(N/N=C/c2ccccc2)ncc1Cl`, the IC50 in assay [1] was 1480 nM; in assay [2], 470 nM; in [3] it was 250 nM; in [4], 1230 nM; in assay [5], 1320 nM.

`CC(C)S(=O)(=O)c1ccccc1Nc1nc(N/N=C/c2ccccc2Cl)ncc1Cl`: the IC50 in assay [1] was 7120 nM; in [2], 6300 nM; in [3], 5620 nM; in assay [4], 7900 nM; in assay [5] it was greater than 10000 nM.

For the compound `CC(C)S(=O)(=O)c1ccccc1Nc1nc(N/N=C/c2ccc(OC(F)(F)F)cc2)ncc1Cl`, the IC50 was 1200 nM in [1]; 5.5 nM in [6]; 898 nM in assay [8]; 79 nM in assay [9]; 393 nM in [10]; 31 nM in assay [2]. In addition, the IC50 was determined as 30 nM in assay [3], 980 nM in [4], 1930 nM in assay [5] and 5.5 nM in assay [11]. In addition, the Ratio IC50 in [7] amounted to 20.

Regarding `CSc1ccc(/C=N/Nc2ncc(Cl)c(Nc3ccccc3S(=O)(=O)C(C)C)n2)cc1`, the IC50 in assay [1] worked out at 320 nM; in assay [2], 210 nM; in assay [3], 280 nM; in [4], 880 nM; in assay [5], 980 nM.

`CC(C)S(=O)(=O)c1ccccc1Nc1nc(N/N=C/c2ccc(Br)cc2)ncc1Cl`: the IC50 in assay [1] came out at 3130 nM; in [2], 950 nM; in assay [3], 1440 nM; in assay [4], 1310 nM; in [5], 2300 nM.

Regarding `C/C(=N\Nc1ncc(Cl)c(Nc2ccccc2S(=O)(=O)C(C)C)n1)c1ccc(C#N)cc1`, the IC50 in assay [1] is 6840 nM; in assay [2] it was 310 nM; in assay [3], 270 nM; in assay [4] it was greater than 10000 nM; in assay [5], greater than 10000 nM.

Turning to `C/C(=N\Nc1ncc(Cl)c(Nc2ccccc2S(=O)(=O)C(C)C)n1)c1ccc(C)cc1`, the IC50 is greater than 10000 nM in assay [1]; 2840 nM in assay [2]; 2230 nM in assay [3]; greater than 10000 nM in assay [4]; greater than 10000 nM in assay [5].

As to `COc1ccc(/C(C)=N/Nc2ncc(Cl)c(Nc3ccccc3S(=O)(=O)C(C)C)n2)cc1`, the IC50 in assay [1] was 2500 nM; in [6], 4.7 nM; in [8], greater than 1000 nM; in [9], 80 nM; in assay [10] it was greater than 1000 nM; in [2], 31 nM. The IC50 was 34 nM in [3], 2120 nM in assay [4], greater than 10000 nM in assay [5] and 4.9 nM in assay [11]. Besides, in assay [7], the Ratio IC50 was determined as 20.

Take `CC(C)S(=O)(=O)c1ccccc1Nc1nc(N/N=C/c2ccccc2F)ncc1Cl`: the concentration for half-maximal inhibition (IC50) was 1230 nM in assay [1]; 360 nM in assay [2]; 450 nM in [3]; greater than 10000 nM in [4]; 1420 nM in assay [5].
